Assays:
[1] = system: Jurkat Human T Cell Leukemia Line; test: Jurkat cell viability assay (XTT reduction); assay type: cell-based; details: Jurkat cells, 24 hours, viability by XTT reduction, read-out: Toxicity (IC50)
[2] = system: human prostate cancer DU145 cells; test: Detachment and apoptotic nuclear changes in DU145 cells; assay type: cell-based; details: DU145, 16 h
Protocol: c. Treatment of cells with MCP inhibitor. Cells were treated with a specified MCP Inhibitor, a standard anticancer agent (etoposide or cisplatin), or DMSO (vehicle). During this process, morphological changes and cellular detachment (for attached cell lines) were monitored. At each time point, cells were harvested, and used for measurement of apoptosis and other biochemical events. In Example 1, infra, involving YVAD-CMK, Compound A was first added to Jurkat T cells. This was followed immediately by dividing the cells into multiple tissue culture flasks. YVAD-CMK was then added to an indicated concentration.
d. Flow cytometry nuclear staining and DNA fragmentation assays. DNA content analysis using flow cytometry was performed as described previously (Nicoletti, I., et al. J. Immunol. Methods 139:271-279, 1992). To assay nuclear morphology, cells were washed with PBS, fixed with 70% ethanol for 1 h, and stained with Hoechst 33258 (1 mM) for 30 min. The nuclear morphology of cells was visualized by fluorescence microscope (OLYMPUS BH2). DNA fragmentation was assayed as described previously (Grant, S., et al. Cancer Res. 52:6270-6278, 1992).
Similar to PC-3, about half of human prostate cancer DU145 cells became detached after exposure to Compound A for 16 h.

Q: What does the source list for `CC(C)C[C@@H](C=O)NC(=O)[C@@H](CCCNC(=N)N[N+](=O)[O-])NC(=O)C(CCCCCCCCN1C(=O)c2ccccc2C1=O)C1CCCC1` (stereo partly drawn) [Compound A]?
A: IC50 [1]: 0.5 µM; Detached cells [2]: about half; Nuclear morphology [2]: Almost all the detached and even the attached DU145 cells exhibited apoptosis-specific nuclear morphology
